# Data published in patent publication US8192999B2, “Method for the identification of macromolecule targets of analytes” (priority 2005, dated 2012).
# Tested on: E. coli proteins
# Test: Non-specific binding of MTX to proteins of E. coli cell lysate (HPLC co-fractionation)
# Conditions: MTX-spiked E. coli extract; FIG. 9
compound,measurement,value
"CN(Cc1cnc2nc(N)nc(N)c2n1)c1ccc(C(=O)N[C@@H](CCC(=O)O)C(=O)O)cc1 [MTX, methotrexate]",non-specific binding of the drug to E. coli proteins,no non-specific binding of the drug to any E. coli proteins was detected
